Values quoted from earlier work, collected in patent US7105537B2, “2-substituted cyclic amines as calcium sensing receptor modulators” (Bristol-Myers Squibb Company, priority 2003, dated 2006).

How the values were obtained:
postmenopausal women = settings: placebo-controlled trial
[1] = intravenous bolus injection
[2] = tested on: osteopenic ovariectomized (OVX) rats; settings: oral administration, in the presence of an anti-resorptive agent

Compound	reduction of the risk of non-traumatic, non-spine fractures (postmenopausal women) [%]	reduction of the risk of spine fractures (postmenopausal women) [%]	serum PTH [1]	bone mass [2]
PTH peptide fragment (1–34): "the PTH peptide fragment (1–34) was shown to reduce the risk of spine fractures and non-traumatic, non-spine fractures" (SVSEIQLMHNLGKHLNSMERVEWLRKKLQDVHNF; Parathyroid hormone; UniProt P01270 32-65, looked up, fragment)	54	65		
CC(C)(Cc1ccc2ccccc2c1)NC[C@@H](O)COc1cccc(Cl)c1C#N [NPS-2143]			transient increase in serum PTH	increase in bone mas
